ChEMBL document CHEMBL1201862, “PubChem BioAssay data set” (2004)
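Test compounds were applied to cells in 96-well plates for 48 hours at 5 doses. The concentration for 50% growth inhibition is given as GI50.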 Activity calls are given as the source filed them. Cut-off read from the data, not from the text of the source: active = GI50 up to about 1.1 µM and inactive = higher.

Key:
Assay in all cases: growth of human tumour cells (NCI), 48 h
[1] = test system: CAKI-1
[2] = test system: NCI-H23
[3] = test system: CCRF-CEM
[4] = test system: HT-29
[5] = test system: RXF 393
[6] = test system: HCT-116
[7] = test system: IGROV-1
[8] = test system: ACHN
[9] = test system: TK-10
[10] = test system: M14
[11] = test system: A498
[12] = test system: SF-268
[13] = test system: SK-MEL-2
[14] = test system: HCC 2998
[15] = test system: SNB-19
[16] = test system: 786-0
[17] = test system: KM12
[18] = test system: OVCAR-8
[19] = test system: RPMI-8226

Measured: GI50

O=[N+]([O-])c1cc(-c2nnc(S)[nH]2)ccc1O
inactive: [1] > 100 µM | [2] > 100 µM | [3] > 100 µM | [4] > 100 µM | [5] > 100 µM | [6] > 100 µM | [7] > 100 µM | [8] > 100 µM | [9] > 100 µM | [10] > 100 µM | [11] > 100 µM | [12] > 100 µM | [13] > 100 µM | [14] > 100 µM | [15] > 100 µM | [16] > 100 µM | [17] > 100 µM

Cc1sc2c(c1C)/C(=N\O)c1cccn1-2
inactive: [1] 32.6 µM | [18] 45.8 µM | [3] 3.6 µM | [4] 30.2 µM | [19] 37.8 µM | [5] 23.2 µM | [6] 37.6 µM | [7] 24.3 µM | [8] 37.2 µM | [9] 43.6 µM | [10] 64 µM | [11] 24.2 µM | [12] 34 µM | [13] 45.2 µM | [14] 37 µM | [15] 23.3 µM | [16] 20.1 µM | [17] 31.6 µM

COc1cc(NCC(C#N)C#N)ccc1/N=N/c1ccc(Cl)cc1
inactive: [18] 29.7 µM | [2] 23.8 µM | [3] 18.9 µM | [4] 16.4 µM | [19] 28.6 µM | [5] 43.6 µM | [6] 23.7 µM | [7] 30.5 µM | [8] 31.8 µM | [9] 29.8 µM | [10] 16.4 µM | [11] 44.7 µM | [12] 38.5 µM | [13] 21.7 µM | [14] 19.7 µM | [15] 13.1 µM | [16] 20 µM | [17] 14.2 µM

CCOC(=O)c1ccc(Nc2nc3ccccc3nc2-c2cccs2)cc1
inactive: [1] 21.9 µM | [18] 93.1 µM | [2] > 100 µM | [3] 41.8 µM | [19] 62.8 µM | [5] 23.7 µM | [6] 80.5 µM | [7] > 100 µM | [8] 47.8 µM | [9] 23.3 µM | [12] 93.5 µM | [14] 23.1 µM | [15] > 100 µM | [16] 50.7 µM | [17] 49.1 µM

CC(C)C1CNC2N1C(=O)C2(C)OCc1ccccc1 (centres undefined)
inactive: [18] > 100 µM | [2] > 100 µM | [3] > 100 µM | [4] > 100 µM | [19] 91.2 µM | [5] > 100 µM | [6] > 100 µM | [7] > 100 µM | [8] > 100 µM | [9] > 100 µM | [10] > 100 µM | [11] > 100 µM | [12] > 100 µM | [13] > 100 µM | [14] > 100 µM | [15] > 100 µM | [16] > 100 µM

CC1=CC[C@@H]2[C@@H](CC[C@@]2(C)O)C(C)(C)[C@H]1CC[C@@H]1[C@@]2(C)CCC(=O)C(C)(C)O[C@@H]2CC[C@]1(C)O
inactive: [1] 36.1 µM | [18] 24.8 µM | [2] 34.3 µM | [3] 23.3 µM | [4] > 10 µM | [19] 19.7 µM | [6] 19.9 µM | [7] 28.9 µM | [8] 19.5 µM | [9] 83.4 µM | [10] 25.3 µM | [11] 31 µM | [12] 29.9 µM | [13] 36.7 µM | [14] 18.7 µM | [15] 26.9 µM | [16] 24.7 µM | [17] 15.2 µM

CC12CCC(/C(=N/c3ccc([N+](=O)[O-])cc3)C1=O)C2(C)C (centres undefined)
inactive: [1] 19.3 µM | [18] 23 µM | [2] 31.6 µM | [4] 21 µM | [19] 20.1 µM | [5] 13.9 µM | [6] 19.1 µM | [7] 25.1 µM | [8] > 100 µM | [9] 16.9 µM | [10] 27.9 µM | [11] > 100 µM | [12] 20.3 µM | [13] 19 µM | [14] 17.4 µM | [15] 33.4 µM | [16] 16.8 µM | [17] 19.9 µM

CC(=O)c1nc2ccccc2n1CC(=O)c1ccc([N+](=O)[O-])cc1
inactive: [1] 17.4 µM | [18] 8.49 µM | [2] 31.3 µM | [3] 9.84 µM | [4] 15.2 µM | [19] 20.1 µM | [5] 23.8 µM | [6] 8.2 µM | [7] 3.12 µM | [9] 42.5 µM | [10] 77.1 µM | [11] 55.2 µM | [12] 30.8 µM | [15] 13.5 µM | [16] 3.47 µM | [17] 5.46 µM

O=C(O)c1ccc([Se][Se]c2ccc(C(=O)O)cc2)cc1
inactive: [1] 19.4 µM | [18] 28.6 µM | [2] 19.3 µM | [19] 21.2 µM | [5] 21.2 µM | [6] 18.1 µM | [7] 30.4 µM | [9] 22.7 µM | [10] 18.5 µM | [12] 33.9 µM | [13] 27.4 µM | [14] 35.9 µM | [15] 34.1 µM | [16] 34 µM | [17] 29 µM

O=C(c1ccc2ccccc2c1)C1S(=O)(=O)OCCOS1(=O)=O
inactive: [1] > 100 µM | [18] > 100 µM | [2] > 100 µM | [3] > 100 µM | [4] > 100 µM | [19] > 100 µM | [6] > 100 µM | [8] > 100 µM | [9] > 100 µM | [10] > 100 µM | [13] > 100 µM | [14] > 100 µM | [15] > 100 µM | [16] > 100 µM | [17] > 100 µM

CCOc1ccccc1/N=N/c1ccc2oc(=O)c(C(C)=O)cc2c1
inactive: [1] > 100 µM | [18] > 100 µM | [2] > 100 µM | [3] > 100 µM | [4] > 100 µM | [19] > 100 µM | [6] > 100 µM | [7] > 100 µM | [9] 30.5 µM | [10] > 100 µM | [11] > 100 µM | [12] > 100 µM | [13] 71 µM | [14] > 100 µM | [15] 55.5 µM | [16] 54.6 µM | [17] > 100 µM

CC(CO)(Nc1ccc([N+](=O)[O-])cc1[N+](=O)[O-])C(=O)O (centres undefined)
inactive: [1] 33.8 µM | [18] 34.8 µM | [2] 27.8 µM | [4] 16.7 µM | [19] 29.3 µM | [5] 12.2 µM | [6] 63.2 µM | [7] 20 µM | [8] 18.7 µM | [9] 36.1 µM | [10] 80.2 µM | [12] 19.3 µM | [13] 20.7 µM | [14] 22.4 µM | [15] 43 µM | [16] 71 µM | [17] 43.5 µM

Cc1cc(Cl)ccc1NC1=NC(=O)C(CC(=O)Nc2ccc(Cl)cc2Cl)S1 (centres undefined)
inactive: [1] > 100 µM | [18] > 100 µM | [2] > 100 µM | [3] > 100 µM | [4] > 100 µM | [19] > 100 µM | [7] > 100 µM | [8] > 100 µM | [9] > 100 µM | [10] > 100 µM | [12] > 100 µM | [13] > 100 µM | [14] > 100 µM | [15] > 100 µM | [16] > 100 µM | [17] > 100 µM

COc1cc(O)c2c(c1O)C(=O)c1cc(C)ncc1C2=O
inactive: [18] 21.8 µM | [2] 12.4 µM | [3] 19.2 µM | [4] 15.3 µM | [19] 22.9 µM | [5] 18.5 µM | [6] 16.5 µM | [7] 23.1 µM | [8] 24.3 µM | [9] > 50 µM | [10] 24.8 µM | [11] > 50 µM | [12] 19.8 µM | [13] 22.3 µM | [14] 22.5 µM | [15] 21.6 µM | [16] 23 µM | [17] 17.9 µM

CC1(C)C2CC(O)C1CCC2=O (centres undefined)
inactive: [1] > 100 µM | [18] > 100 µM | [2] > 100 µM | [3] > 100 µM | [4] > 100 µM | [19] > 100 µM | [5] > 100 µM | [6] > 100 µM | [8] > 100 µM | [9] > 100 µM | [10] > 100 µM | [11] > 100 µM | [12] > 100 µM | [13] > 100 µM | [14] > 100 µM | [15] > 100 µM | [16] > 100 µM | [17] > 100 µM

COC(=O)C1=CCON(c2ccccc2)C1c1ccccc1 (centres undefined)
inactive: [1] 42.9 µM | [2] 33.2 µM | [3] 47.4 µM | [4] 40.4 µM | [19] 29.2 µM | [5] 48 µM | [7] 97.3 µM | [8] 57 µM | [9] 44.9 µM | [10] 32.2 µM | [12] 75.3 µM | [13] 65.8 µM | [14] 65.5 µM | [15] 62.8 µM | [16] > 100 µM | [17] 45 µM
